The values that follow come from US4761414A, “Substituted 1H-pyrimido[1,2-a-]-pyrido[3,4-e]pyrazine 6 oxides” (G. D. Searle & Co., priority 1986, dated 1988).

Values after ≈ are worked out from the molar mass of the structure shown.

Holding throughout (type): cell-based
The subject of test [1] is B. fragilis NCTC 9343. The test is described as follows: MIC/MBC against Bacteroides fragilis strain B. Particulars: for MBC: NCTC9343, 99.9% reduction in viable count; for MIC: NCTC9343, 48 h, 48 hours, 37° C., anaerobic. On the procedure:
(§1) The screening panel utilized in this Example consisted of 5 strains of Bacteroides fragilis. All assays were carried out in 96-well microtitre plates. If an isolate was obtained from either a culture collection or clinical source, the isolate was immediately inoculated into Wilkens-Chalgren broth (Oxoid) and incubated at 37° C. in an anaerobic chamber in an atmosphere of 85% nitrogen, 10% carbon dioxide, and 5% hydrogen for 48 hours. At the end of this time, the viable count was about 10^12 organisms/ml broth. A 1 ml aliquot of each culture was placed in an ampoule and quick frozen in acetone-dry ice mixture and stored in liquid nitrogen. When an inoculum was utilized in an assay, one of the ampoules was thawed and diluted with fresh broth to yield a suspension having a count of 5×10^5 organisms/ml. A 100 μl aliquot of this suspension was inoculated into each well of the microtitre plate. A 2 mg sample of the test compound was dissolved in 0.2 ml of a suitable solvent such as dimethylsulfoxide, polyethylene glycol 200 or methanol. […] After addition of the test solution the final inoculum level was 10^5 cells/ml. The plates were incubated for 48 hours at 37° C. in the anaerobic chamber. The Minimum Inhibitory Concentration (MIC) was read visually. The MIC is defined as the lowest concentration at which there is no detectable growth. The Minimum Bactericidal Concentration (MBC) was determined by taking 50 μl aliquot from each well and placing it in fresh medium. […] The strains of Bacteroides fragilis utilized in the above procedure are identified by letter in accordance with the following legend: |B B. fragilis NCTC 9343

The test system of test [2] is B. fragilis NCTC 9344. In words: MIC/MBC against Bacteroides fragilis strain C. Particulars: for MBC: NCTC9344, 99.9% reduction in viable count; for MIC: NCTC9344, 48 h, 48 hours, 37° C., anaerobic. On the procedure: as §1, with “|C” for “|B”, “9344” for “9343”
The subject of test [3] is B. fragilis NCTC 10581. The test is described as follows: MIC/MBC against Bacteroides fragilis strain A (96-well microtitre plates, anaerobic chamber). Particulars: Bacteroides fragilis; for MBC: NCTC10581, 99.9% reduction in viable count; for MIC: NCTC10581, 48 h, 48 hours, 37° C., anaerobic. As for the experimental part:
as §1, with “|A” for “|B”, “10581” for “9343”

For test [4], the system named is B. fragilis MZ-R ATCC 11295. In words: MIC/MBC against Bacteroides fragilis strain D. Particulars: for MBC: ATCC11295, 99.9% reduction in viable count; for MIC: ATCC11295, 48 h, 48 hours, 37° C., anaerobic. On the procedure: The screening panel utilized in this Example consisted of 5 strains of Bacteroides fragilis. All assays were carried out in 96-well microtitre plates. If an isolate was obtained from either a culture collection or clinical source, the isolate was immediately inoculated into Wilkens-Chalgren broth (Oxoid) and incubated at 37° C. in an anaerobic chamber in an atmosphere of 85% nitrogen, 10% carbon dioxide, and 5% hydrogen for 48 hours. At the end of this time, the viable count was about 10^12 organisms/ml broth. A 1 ml aliquot of each culture was placed in an ampoule and quick frozen in acetone-dry ice mixture and stored in liquid nitrogen. When an inoculum was utilized in an assay, one of the ampoules was thawed and diluted with fresh broth to yield a suspension having a count of 5×10^5 organisms/ml. A 100 μl aliquot of this suspension was inoculated into each well of the microtitre plate. A 2 mg sample of the test compound was dissolved in 0.2 ml of a suitable solvent such as dimethylsulfoxide, polyethylene glycol 200 or methanol. […] After addition of the test solution the final inoculum level was 10^5 cells/ml. The plates were incubated for 48 hours at 37° C. in the anaerobic chamber. The Minimum Inhibitory Concentration (MIC) was read visually. The MIC is defined as the lowest concentration at which there is no detectable growth. The Minimum Bactericidal Concentration (MBC) was determined by taking 50 μl aliquot from each well and placing it in fresh medium.

The test system of test [5] is Campylobacter fetus ss. jejuni NCTC 10842. In words: MIC vs panel of anaerobes. Conditions: NCTC10842, procedures of Example 40.
Test [6] deals with Clostridium perfringens NCTC 8237. In words: microbe, parasite or virus in culture. Conditions: procedures of Example 40.
The mark [7] stands for this setting: Clostridium perfringens, NCTC8237, Clostridium perfringens NCTC 8237.

What is called MBC is the smallest concentration meeting the test's criterion for killing. A lower MBC goes with greater bactericidal potency. Take `CC1(C)CN=C2C(c3ccc(F)cc3)=[N+]([O-])c3cnccc3N2C1` [Example 33, 2,3-Dihydro-2,2-dimethyl-5-(4-fluorophenyl)-1H-pyrimido[1,2-a]pyrido[3,4-e]pyrazine 6-oxide]: the MBC in test [1], in test [2], in test [3] and in test [4] was less than 0.8 µg/mL in each case. The MIC in test [1], in test [2], in test [3] and in test [4] was less than 0.8 µg/mL in each case.
As for `Cc1ccc(C2=[N+]([O-])c3cccnc3N3CC(C)(C)CN=C23)cc1` [Example 20, 2,3-Dihydro-2,2-dimethyl-5-(4-methylphenyl)-1H-pyrimido[1,2-a]pyrido[3,2-e]pyrazine 6-oxide], the MBC in test [1] is 6.2 µg/mL (≈ 19.4 µM); in test [2], 1.5 µg/mL (≈ 4.68 µM); in test [3] it was less than 0.8 µg/mL; in test [4], less than 0.8 µg/mL. Besides, the MIC was 6.2 µg/mL (≈ 19.4 µM) in test [1]; 6.2 µg/mL (≈ 19.4 µM) in test [5]; 1.5 µg/mL (≈ 4.68 µM) in test [2]; 1.5 µg/mL (≈ 4.68 µM) in test [6] (setting [7]); less than 0.8 µg/mL in test [3]; less than 0.8 µg/mL in test [4].
For `[O-][N+]1=C(c2ccccc2)C2=NCC3(CCCCC3)CN2c2ncccc21` [Example 29, Spiro[cyclohexane-1,2'-[2,3]-dihydro-[5]-phenyl-[1H]pyrimido[1,2-a]pyrido[3,2-e]pyrazine [6]-oxide]], the MBC in test [1], in test [2] and in test [4] was less than 0.8 µg/mL in each case. The MIC in test [1] was less than 0.8 µg/mL; in test [5], 100 µg/mL (≈ 289 µM); in test [2] it was less than 0.8 µg/mL; in test [4], less than 0.8 µg/mL.
Turning to `CCCC1(C)CN=C2C(c3ccccc3)=[N+]([O-])c3cnccc3N2C1` (stereo not drawn) [Example 27, 2,3-Dihydro-2-methyl-5-phenyl-2-propyl-1H-pyrimido[1,2-a]pyrido[3,4-e]pyrazine 6-oxide], the MBC in test [1] was less than 0.8 µg/mL; in test [2], less than 0.8 µg/mL; in test [3] it was 1.5 µg/mL (≈ 4.49 µM); in test [4] it was 1.5 µg/mL (≈ 4.49 µM). The MIC was less than 0.8 µg/mL in test [1], less than 0.8 µg/mL in test [2], 1.5 µg/mL (≈ 4.49 µM) in test [3] and 1.5 µg/mL (≈ 4.49 µM) in test [4].
Consider `CC1(C)CN=C2C(c3ccccc3)=[N+]([O-])c3cnccc3N2C1` [Example 15, 2,3-Dihydro-2,2-dimethyl-5-phenyl-1H-pyrimido[1,2-a]pyrido[3,4-e]pyrazine 6-oxide], for which the MBC in test [1] is less than 0.8 µg/mL; in test [2], less than 0.8 µg/mL; in test [3], less than 0.8 µg/mL; in test [4] it was 1.5 µg/mL (≈ 4.9 µM). For the same compound, the MIC in test [1] is less than 0.8 µg/mL; in test [2], less than 0.8 µg/mL; in test [6] (setting [7]) it was 12.5 µg/mL (≈ 40.8 µM); in test [3], less than 0.8 µg/mL; in test [4], less than 0.8 µg/mL.
Turning to `CC1(C)CN=C2C(c3ccccc3)=[N+]([O-])c3cccnc3N2C1` [Example 16, 2,3-Dihydro-2,2-dimethyl-5-phenyl-1H-pyrimido[1,2-a]pyrido[3,2-e]pyrazine 6-oxide], the MBC in test [1] stood at 1.5 µg/mL (≈ 4.9 µM); in test [2], 1.5 µg/mL (≈ 4.9 µM); in test [3], 3.1 µg/mL (≈ 10.1 µM); in test [4], 1.5 µg/mL (≈ 4.9 µM). In addition, the MIC in test [1] is 1.5 µg/mL (≈ 4.9 µM); in test [2], 1.5 µg/mL (≈ 4.9 µM); in test [6] (Clostridium perfringens NCTC 8237) it was 12.5 µg/mL (≈ 40.8 µM); in test [3], 3.1 µg/mL (≈ 10.1 µM); in test [4] it was less than 0.8 µg/mL.
For the compound `CC1CN=C2C(c3ccccc3)=[N+]([O-])c3cnccc3N2C1` (stereo not drawn) [Example 34, 2,3-Dihydro-2-methyl-5-phenyl-1H-pyrimido[1,2-a]pyrido[3,4-e]pyrazine 6-oxide], the MBC in test [1], in test [2], in test [3] and in test [4] was less than 0.8 µg/mL throughout. Also, the MIC in test [1], in test [2], in test [3] and in test [4] was less than 0.8 µg/mL each time.
In the case of `CC1(C)CN=C2C(c3ccc(Cl)cc3)=[N+]([O-])c3cccnc3N2C1` [Example 18, 2,3-Dihydro-5-(4-chlorophenyl)-2,2-dimethyl-1H-pyrimido[1,2-a]pyrido[3,2-e]pyrazine 6-oxide], the MBC in test [1] was less than 0.8 µg/mL; in test [2], 1.5 µg/mL (≈ 4.4 µM); in test [3], less than 0.8 µg/mL; in test [4] it was less than 0.8 µg/mL. The MIC was less than 0.8 µg/mL in test [1]; 1.5 µg/mL (≈ 4.4 µM) in test [2]; 6.2 µg/mL (≈ 18.2 µM) in test [6] (setting [7]); less than 0.8 µg/mL in test [3]; less than 0.8 µg/mL in test [4].
Turning to `COc1ccc(C2=[N+]([O-])c3cnccc3N3CC(C)(C)CN=C23)cc1OC` [Example 21], the MBC was 1.5 µg/mL (≈ 4.09 µM) in test [1], 1.5 µg/mL (≈ 4.09 µM) in test [2], less than 0.8 µg/mL in test [3] and less than 0.8 µg/mL in test [4]. The MIC in test [1] was 1.5 µg/mL (≈ 4.09 µM); in test [2], less than 0.8 µg/mL; in test [3] it was less than 0.8 µg/mL; in test [4], less than 0.8 µg/mL.
With `CCCC1(C)CN=C2C(c3ccccc3)=[N+]([O-])c3cccnc3N2C1` (stereo not drawn) [Example 28, 2,3-Dihydro-2-methyl-5-phenyl-2-propyl-1H-pyrimido[1,2-a]pyrido[3,2-e]pyrazine 6-oxide], the MBC in test [1], in test [2], in test [3] and in test [4] was less than 0.8 µg/mL throughout. Moreover, the MIC in test [1], in test [2], in test [3] and in test [4] was less than 0.8 µg/mL in each case.
